Data on three molecules can be found in article PMC9920912, “In Vitro Binding Effects of the Ecdysone Receptor−Binding Domain and PonA in Plutella xylostella” (Molecules, 2023).

Experiment [1] has as its target T1, ecdysone receptor (PxGST−EcR) (Plutella xylostella, UniProt G5CV07).
T1 sequence (G5CV07 285-528): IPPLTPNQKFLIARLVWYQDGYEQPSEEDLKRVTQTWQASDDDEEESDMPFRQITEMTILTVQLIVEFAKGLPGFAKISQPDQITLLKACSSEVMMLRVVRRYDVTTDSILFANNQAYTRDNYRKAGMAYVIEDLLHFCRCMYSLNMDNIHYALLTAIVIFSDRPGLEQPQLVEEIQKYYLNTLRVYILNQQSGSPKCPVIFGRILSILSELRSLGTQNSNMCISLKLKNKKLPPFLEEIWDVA
T1 sequence (G5CV12 133-414 partner limits assumed): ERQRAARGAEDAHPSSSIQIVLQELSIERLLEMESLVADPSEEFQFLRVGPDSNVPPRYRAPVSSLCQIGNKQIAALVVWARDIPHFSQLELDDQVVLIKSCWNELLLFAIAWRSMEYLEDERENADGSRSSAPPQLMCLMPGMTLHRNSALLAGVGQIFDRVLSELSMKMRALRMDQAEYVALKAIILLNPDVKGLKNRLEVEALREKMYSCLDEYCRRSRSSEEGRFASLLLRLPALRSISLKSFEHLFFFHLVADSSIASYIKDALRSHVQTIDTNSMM
Description: biochemical.

The target of experiment [2] is T1, ecdysone receptor (PxGST−EcR). The experiment in a line: competitive radioligand binding, displacement of [3H]PonA from purified EcR/USP dimer. Also on record: truncated LBD-containing functional domain (D and E domains) fused to GST; with USP (PxGST−USP). Background: In a radioligand displacement assay an active substance lowers the binding of a labelled ligand.

In experiment [3] the target is T2, PxGST-EcR (Plutella xylostella ecdysone receptor, truncated LBD-containing functional domain fused to … (Plutella xylostella, UniProt G5CV07)).
T2 chain: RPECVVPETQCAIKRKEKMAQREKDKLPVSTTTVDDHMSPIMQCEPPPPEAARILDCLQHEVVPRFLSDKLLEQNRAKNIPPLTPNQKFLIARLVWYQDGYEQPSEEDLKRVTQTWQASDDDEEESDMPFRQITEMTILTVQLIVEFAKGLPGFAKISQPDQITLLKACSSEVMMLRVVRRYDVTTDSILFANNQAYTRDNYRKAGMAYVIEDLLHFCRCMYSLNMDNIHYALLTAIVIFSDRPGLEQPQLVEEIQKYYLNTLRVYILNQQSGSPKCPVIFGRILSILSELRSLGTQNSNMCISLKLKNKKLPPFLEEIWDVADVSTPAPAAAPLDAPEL
The experiment in a line: TEM and zeta potential of co-incubated proteins, supported by enhanced [3H]PonA binding.

Consider `CC(C)CC[C@@H](O)[C@](C)(O)[C@H]1CC[C@@]2(O)C3=CC(=O)[C@@H]4C[C@@H](O)[C@@H](O)C[C@]4(C)[C@H]3CC[C@]12C` [PonA], for which the Kd in experiment [1] is 2.3 nM.
The molecule `CCc1ccc(C(=O)NN(C(=O)c2cc(C)cc(C)c2)C(C)(C)C)cc1` [tebufenozide] registered an IC50 in experiment [2] of 80.6 nM.

B1: PxGST-USP (Plutella xylostella ultraspiracle, truncated LBD-containing functional domain fused to glutathione-S-transferase) (protein)
chain: KREAVQEERQRAARGAEDAHPSSSIQIVLQELSIERLLEMESLVADPSEEFQFLRVGPDSNVPPRYRAPVSSLCQIGNKQIAALVVWARDIPHFSQLELDDQVVLIKSCWNELLLFAIAWRSMEYLEDERENADGSRSSAPPQLMCLMPGMTLHRNSALLAGVGQIFDRVLSELSMKMRALRMDQAEYVALKAIILLNPDVKGLKNRLEVEALREKMYSCLDEYCRRSRSSEEGRFASLLLRLPALRSISLKSFEHLFFFHLVADSSIASYIKDALRSHVQTIDTNSMM
For the molecule B1, in experiment [3], the binding result is given as “binds”.

Usually Kd stands for the equilibrium constant for the complex coming apart. The low end stands for a tighter complex, the high end for a looser complex. A word on the IC50: it is the concentration needed to halve the response being measured. Higher therefore signals weaker potency.
